From patent US20250353860A1, “PIPERIDINE CARBOXAMIDE AZAINDANE DERIVATIVE, METHOD FOR PREPARING SAME, AND USE THEREOF” (BRISE PHARMACEUTICALS CO., LTD., priority 2022, published 2025) come the findings set out here.

A short description of data set [1]: Pharmacokinetics in SD rats by oral gavage. In kind it is in vivo. The conditions noted are these: for Pharmacokinetic properties compared with Atogepant: conclusion in words; for AUC / bioavailability / half-life / Cmax: male, Sprague-Dawley, rat, plasma, PO 10 mg/kg; for bioavailability: read-out: Bioavailability F; for half-life: read-out: Half-life period T½ (converted); for Cmax: read-out: Plasma concentration Cmax. The text has this:
SD rats were used as test animals, and the LC/MS/MS method was used to determine the drug concentration in plasma at different times after gavage and intravenous […] of the compound of the application, so as to study the pharmacokinetic characteristics of the compound of the application in rats.
Positive control compound Atogepant, Example 1A and Example 3A of the present application;
Eighteen healthy adult Sprague Dawley (SD) male rats were purchased from Joinn (Suzhou) New Drug Research Center Co., Ltd.
An appropriate amount of the compound to be tested was weighed, added with 100% polyethylene glycol 400, and vortexed to dissolve the compound. After the preparation was completed, it would be a colorless and transparent solution with a concentration of 2 mg/mL.
An appropriate amount of the compound to be tested was weighed, added 90% polyethylene glycol 400 and 10% ethanol, and vortexed to dissolve the compound. After the preparation was completed, it would be a colorless and transparent solution with a concentration of 1 mg/mL.
Eighteen healthy adult SD male rats were fasted overnight and fed 4 hours after drug administration.
(§1) About 0.2 mL of blood was collected from the jugular vein before administration and 0.083 hours, 0.25 hours, 0.5 hours, 1 hour, 2 hours, 4 hours, 6 hours, 8 hours, 10 hours and 24 hours after administration, and anticoagulated with EDTA-K2. After blood samples were collected, they were placed in labeled ice-water bath centrifuge tubes and rapidly centrifuged to separate plasma. The centrifugation conditions were: 4000 rpm, 10 minutes, 4° C. The collected plasma was stored at below −40° C. for testing. The content of the tested compounds in the plasma of SD rats after gavage and intravenous administration of different compounds was determined by LC-MS/MS.

Data set [2] is described as follows: Pharmacokinetics in Cynomolgus monkeys by oral gavage. Format: in vivo. The conditions noted are these: for Pharmacokinetic properties compared with Atogepant: conclusion in words; for AUC / half-life / Cmax: male, cynomolgus monkey, plasma, PO 2 mg/kg; for half-life: read-out: Half-life T½ (converted); for Cmax: read-out: Plasma concentration Cmax. As for the experimental part:
The compounds of the present application were administered by gavage to cynomolgus monkeys as test animals, and the drug concentrations in plasma at different times were determined by LC/MS/MS to study the pharmacokinetic characteristics of the compounds of the present application […].
• Positive control compound Atogepant, Example 1A and Example 3A of the present application; • Six healthy adult male Cynomolgus monkeys, Kangshun Biotechnology Co., Ltd.
An appropriate amount of the compound to be tested was weighed, added with 100% polyethylene glycol 400, and vortexed to dissolve the compound. After the preparation was completed, it would be a colorless and transparent solution with a concentration of 1 mg/mL.
Six healthy adult male cynomolgus monkeys were fasted overnight and fed 4 hours after drug administration.
as §1, with “and” for “and 0.083 hours,”, “test compound” for “tested compounds”, “Cynomolgus monkeys” for “SD rats”, “gavage” for “gavage and intravenous administration”

Data set [3] has as its target T1, CGRP receptor (Homo sapiens, UniProt O60894+Q16602). In words: Inhibition of CGRP signaling pathway (cAMP, HTRF) in CHO-K1 cells expressing human CGRP receptors. Format: cell-based. Also noted: host or cells: CHO-K1. The conditions noted are these: [α-CGRP]=10 ng/ml; increase in cAMP levels; read-out: IC50 of the inhibitory effect on the CGRP signaling pathway in CHO-K1 cells expressing human CGRP receptors. As for the experimental part: (§2) The inhibitory effect of the CGRP signaling pathway in vitro is evaluated by measuring the cAMP level. The principle is that after CGRP binds to the CGRP receptor, the CGRP signaling pathway is activated, inducing an increase in the cAMP level. […] The specific experimental method is as follows:
CHO-K1 cells expressing human CGRP receptor (CGRPR/CHO-K1, PerkinElmer, ES-420-C) were cultured in F12K+10% FBS+400 μg/mL G418+10 μg/mL Blasticidin medium, and the cells were collected in the logarithmic growth phase. According to the instructions of the kit, the cells were resuspended in Stimulation Buffer comprising 0.5 mM IBMX, and 5 μL of the cell suspension was added to each well of a 96-well microplate (Cisbio, 66PL96025) at a cell density of 15,000 cells/well. 2.5 μL of gradient diluted compound solution was added to each well. After incubation at 37° C. for 30 minutes, 2.5 μL of 40 ng/ml human α-CGRP (Bachem, H-1470,0500) diluted in Stimulation Buffer comprising 0.5 mM IBMX was added to each well to a final concentration of 10 ng/ml. After incubation at 37° C. for 30 minutes, 5 μL of Anti-cAMP-Cryptate solution and 5 μL of cAMP-d2 solution were added to each well. After incubation at room temperature for 60 minutes, the HTRF signal was read using a microplate reader (Molecular Devices). Graphpad Prism was used to calculate the IC50 value of the compound's inhibitory effect on the increase in cAMP levels based on the compound concentration and HTRF signal.
On the technique in general: Time-resolved FRET reads energy transfer from a long-lived donor to a nearby acceptor.

The target of data set [4] is T1, CGRP receptor. Briefly: Inhibition of CGRP signaling pathway (cAMP, HTRF) in SK-N-MC cells. Format: cell-based. The arrangement: SK-N-MC (ATCC, HTB-10) cells endogenously expressing CGRP receptor; host or cells: SK-N-MC. The conditions noted are these: [α-CGRP]=10 ng/mL; increase in cAMP levels; read-out: IC50 of the inhibitory effect on the CGRP signaling pathway in SK-N-MC cells. As for the experimental part: as §2
cAMP was determined using the CAMP-GS DYNAMIC KIT detection kit (Cisbio, 62AM4PEB).
SK-N-MC (ATCC, HTB-10) cells endogenously expressing CGRP receptor were cultured in EMEM+10% FBS medium and the cells were collected during the logarithmic growth phase. According to the instructions of the kit, the cells were resuspended in Stimulation Buffer comprising 0.5 mM IBMX, and 5 μL of the cell suspension was added to each well of a 96-well microplate (Cisbio, 66PL96025) at a cell density of 15,000 cells/well, 2.5 μL of gradient diluted compound solution was added to each well. After incubation at 37° C. for 30 minutes, 2.5 μL of 40 ng/ml human α-CGRP (Bachem, H-1470.0500) diluted in Stimulation Buffer comprising 0.5 mM IBMX was added to each well to a final concentration of 10 ng/ml. After incubation at 37° C. for 30 minutes, 5 μL of Anti-cAMP-Cryptate solution and 5 μL of cAMP-d2 solution were added to each well. After incubation at room temperature for 60 minutes, the HTRF signal was read using a microplate reader (Molecular Devices). Graphpad Prism was used to calculate the IC50 value of the compound's inhibitory effect on the increase in cAMP levels based on the compound concentration and HTRF signal.

T1 sequence (Q16602 23-461): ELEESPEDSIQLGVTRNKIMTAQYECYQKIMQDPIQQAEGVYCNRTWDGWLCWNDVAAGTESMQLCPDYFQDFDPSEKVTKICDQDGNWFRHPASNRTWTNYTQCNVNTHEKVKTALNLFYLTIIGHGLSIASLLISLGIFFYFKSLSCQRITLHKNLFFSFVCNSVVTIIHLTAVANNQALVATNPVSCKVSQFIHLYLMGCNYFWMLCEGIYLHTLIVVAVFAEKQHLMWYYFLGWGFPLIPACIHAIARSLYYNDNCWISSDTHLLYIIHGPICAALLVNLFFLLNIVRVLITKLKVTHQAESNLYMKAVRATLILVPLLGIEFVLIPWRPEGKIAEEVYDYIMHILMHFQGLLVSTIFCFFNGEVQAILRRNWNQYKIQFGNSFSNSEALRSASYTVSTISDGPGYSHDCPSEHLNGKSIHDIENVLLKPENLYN
T1 sequence (O60894 27-148): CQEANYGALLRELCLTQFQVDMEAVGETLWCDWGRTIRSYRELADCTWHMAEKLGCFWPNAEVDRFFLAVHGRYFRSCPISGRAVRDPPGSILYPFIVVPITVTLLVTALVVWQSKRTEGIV

In the case of `C[C@@H]1[C@H](c2c(F)ccc(F)c2F)C[C@H](NC(=O)c2cc3c(s2)C[C@]2(C3)C(=O)Nc3ncccc32)C(=O)N1CC(F)(F)F` [Example 3A, (S)—N-((3S,5S,6R)-6-methyl-2-oxo-1-(2,2,2-trifluoroethyl)-5-(2,3,6-trifluorophenyl)piperidin-3-yl)-2′-oxo-1′,2′,4,6-tetrahydrospiro[cyclopenta[b]thiophene-5,3′-pyrrolo[2,3-b]pyridine]-2-carboxamide], in data set [1], the “Pharmacokinetic properties compared with Atogepant” value is recorded as “good pharmacokinetic properties”; the AUC (commonly concentration integrated over time) came to 42500 ± 8520 ng·h/mL; the bioavailability (commonly the share of a dose that reaches the circulation, judged against a reference dose that is usually intravenous) came out at 90.5 ± 19.1%; the half-life (in general, how long it takes for the measured level to halve) was 1.62 ± 0.2 h. Moreover, the Cmax in data set [1] was 10500 ± 3730 ng/mL. In data set [2], the “Pharmacokinetic properties compared with Atogepant” value is “good pharmacokinetic properties”, the exposure (AUC) was determined as 3590 ± 742 ng·h/mL, the half-life is 2.96 ± 0.3 h and the Cmax is 778 ± 144 ng/mL. In addition, the IC50 (in general, the concentration that gives 50% inhibition) at CGRP receptor [3] came out at 2.9 nM. Also, on CGRP receptor [4], the IC50 worked out at 0.68 nM.
For `C[C@@H]1[C@H](c2c(F)ccc(F)c2F)C[C@H](NC(=O)c2cc3c(o2)CC[C@]2(C3)C(=O)Nc3ncccc32)C(=O)N1CC(F)(F)F` [Example 1A, (R)—N-((3S,5S,6R)-6-methyl-2-oxo-1-(2,2,2-trifluoroethyl)-5-(2,3,6-trifluorophenyl)piperidin-3-yl)-2′-oxo-1′,2′,6,7-tetrahydro-4H-spiro[benzofuran-5,3′-pyrrolo[2,3-b]pyridine]-2-carboxamide], in data set [1], the “Pharmacokinetic properties compared with Atogepant” value is listed as “good pharmacokinetic properties”, the AUC is 23200 ± 7950 ng·h/mL, the bioavailability worked out at 38.6 ± 13.3% and the half-life was 2.93 ± 0.6 h. Besides, in data set [1], the Cmax was 3850 ± 1460 ng/mL. In addition, in data set [2], the “Pharmacokinetic properties compared with Atogepant” value is given as “good pharmacokinetic properties”, the exposure (AUC) is 1840 ± 1190 ng·h/mL, the half-life is 3.77 ± 0.2 h and the Cmax stood at 294 ± 166 ng/mL. For the same compound, the IC50 at CGRP receptor [3] stood at 14.5 nM. Besides, the IC50 at CGRP receptor [4] was found to be 0.18 nM.
Turning to `C[C@@H]1[C@H](c2c(F)ccc(F)c2F)C[C@H](NC(=O)c2cnc3c(c2)C[C@@]2(C3)C(=O)Nc3ncccc32)C(=O)N1CC(F)(F)F` [Atogepant, reference compound], in data set [1], the AUC came to 2440 ± 1400 ng·h/mL, the bioavailability stood at 12.5 ± 7.3%, the half-life was 1.6 ± 0.3 h and the Cmax stood at 560 ± 233 ng/mL. In addition, in data set [2], the AUC stood at 396 ± 42 ng·h/mL, the half-life is 1.5 ± 0.1 h and the Cmax was 108 ± 18 ng/mL. Also, at CGRP receptor [3], the half-maximal inhibitory concentration (IC50) came to 1.5 nM. On CGRP receptor [4], the IC50 was found to be 0.12 nM.
